Data taken from PubChem BioAssay (NCI).
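Where inhibition never reached the appropriate level, the endpoint shown equals the highest concentration tested. Otherwise, values were interpolated linearly from a five-concentration, 48-hour dose response in 96-well plates. Abbreviation: GI50, concentration required for 50% inhibition of growth. The concentration for full growth arrest is given as TGI.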

Key:
Assay in all cases: inhibition of tumour cell growth, NCI panel, 48 h
OVCAR-5 ovarian = system: OVCAR-5 ovarian
HCT-15 colon = system: HCT-15 colon
ACHN renal = system: ACHN renal
OVCAR-4 ovarian = system: OVCAR-4 ovarian
SW-620 colon = system: SW-620 colon
OVCAR-8 ovarian = system: OVCAR-8 ovarian
SNB-19 CNS = system: SNB-19 CNS
SR leukemia = system: SR leukemia
NCI-H226 lung = system: NCI-H226 lung
SNB-75 CNS = system: SNB-75 CNS
PC-3 prostate = system: PC-3 prostate
DU-145 prostate = system: DU-145 prostate
SK-OV-3 ovarian = system: SK-OV-3 ovarian
SF-539 CNS = system: SF-539 CNS
MCF7 breast = system: MCF7 breast
COLO 205 colon = system: COLO 205 colon
TK-10 renal = system: TK-10 renal
EKVX NSCLC = system: EKVX NSCLC
RPMI-8226 leukemia = system: RPMI-8226 leukemia
OVCAR-3 ovarian = system: OVCAR-3 ovarian
BT-549 breast = system: BT-549 breast
LOX IMVI melanoma = system: LOX IMVI melanoma
786-0 renal = system: 786-0 renal
SF-268 CNS = system: SF-268 CNS
HOP-62 NSCLC = system: HOP-62 NSCLC
A549 NSCLC = system: A549 NSCLC
RXF 393 renal = system: RXF 393 renal
MDA-MB-231 breast = system: MDA-MB-231 breast
K-562 leukemia = system: K-562 leukemia
A498 renal = system: A498 renal
CCRF-CEM leukemia = system: CCRF-CEM leukemia
NCI-H23 lung = system: NCI-H23 lung
SK-MEL-28 melanoma = system: SK-MEL-28 melanoma
UACC-257 melanoma = system: UACC-257 melanoma
HS 578T breast = system: HS 578T breast
IGROV1 ovarian = system: IGROV1 ovarian
NCI-H460 lung = system: NCI-H460 lung
UO-31 renal = system: UO-31 renal
HOP-92 NSCLC = system: HOP-92 NSCLC
CAKI-1 renal = system: CAKI-1 renal
MALME-3M melanoma = system: MALME-3M melanoma
U251 CNS = system: U251 CNS
HL-60(TB) leukemia = system: HL-60(TB) leukemia
HT29 colon = system: HT29 colon
MOLT-4 leukemia = system: MOLT-4 leukemia
KM12 colon = system: KM12 colon
HCC-2998 colon = system: HCC-2998 colon
M14 melanoma = system: M14 melanoma
SK-MEL-5 melanoma = system: SK-MEL-5 melanoma
HCT-116 colon = system: HCT-116 colon
SF-295 CNS = system: SF-295 CNS
NCI/ADR-RES ovarian = system: NCI/ADR-RES ovarian
SN12C renal = system: SN12C renal
NCI-H522 lung = system: NCI-H522 lung
SK-MEL-2 melanoma = system: SK-MEL-2 melanoma
T-47D breast = system: T-47D breast
MDA-MB-435 = system: MDA-MB-435
UACC-62 melanoma = system: UACC-62 melanoma

c1cc(N2CCCC2)c2nc(-c3[nH]ncc3Nc3ncnc4[nH]ccc34)[nH]c2c1
GI50 (OVCAR-5 ovarian): 115 nM
TGI (OVCAR-5 ovarian): 2200 nM
GI50 (HCT-15 colon): 76.5 nM
TGI (HCT-15 colon): 584 nM
GI50 (ACHN renal): 30.2 nM
TGI (ACHN renal): 679 nM
GI50 (OVCAR-4 ovarian): 146 nM
TGI (OVCAR-4 ovarian): 1140 nM
GI50 (SW-620 colon): 68.4 nM
TGI (SW-620 colon): 548 nM
GI50 (OVCAR-8 ovarian): 84.7 nM
TGI (OVCAR-8 ovarian): 1360 nM
GI50 (SNB-19 CNS): 96.2 nM
TGI (SNB-19 CNS): 1580 nM
GI50 (SR leukemia): 36.2 nM
TGI (SR leukemia): 26700 nM
GI50 (NCI-H226 lung): 41 nM
TGI (NCI-H226 lung): 204 nM
TGI (SNB-75 CNS): 348 nM
GI50 (PC-3 prostate): 26.1 nM
TGI (PC-3 prostate): 446 nM
GI50 (DU-145 prostate): 85.3 nM
TGI (DU-145 prostate): 777 nM
GI50 (SK-OV-3 ovarian): 27.6 nM
TGI (SK-OV-3 ovarian): 586 nM
GI50 (SF-539 CNS): 20.6 nM
TGI (SF-539 CNS): 256 nM
GI50 (MCF7 breast): 80.6 nM
TGI (MCF7 breast): 677 nM
GI50 (COLO 205 colon): 285 nM
TGI (COLO 205 colon): 2030 nM
GI50 (TK-10 renal): 323 nM
TGI (TK-10 renal): 1380 nM
GI50 (EKVX NSCLC): 151 nM
TGI (EKVX NSCLC): 1700 nM
GI50 (RPMI-8226 leukemia): 254 nM
TGI (RPMI-8226 leukemia): 1060 nM
GI50 (OVCAR-3 ovarian): 44.1 nM
TGI (OVCAR-3 ovarian): 663 nM
GI50 (BT-549 breast): 67.2 nM
TGI (BT-549 breast): 736 nM
GI50 (LOX IMVI melanoma): 25.4 nM
TGI (LOX IMVI melanoma): 342 nM
GI50 (786-0 renal): 34.1 nM
TGI (786-0 renal): 560 nM
GI50 (SF-268 CNS): 108 nM
TGI (SF-268 CNS): 569 nM
GI50 (HOP-62 NSCLC): 100 nM
TGI (HOP-62 NSCLC): 2030 nM
GI50 (A549 NSCLC): 80.6 nM
TGI (A549 NSCLC): 455 nM
GI50 (RXF 393 renal): 22.8 nM
TGI (RXF 393 renal): 92.9 nM
GI50 (MDA-MB-231 breast): 62.8 nM
TGI (MDA-MB-231 breast): 418 nM
GI50 (K-562 leukemia): < 11.5 nM
TGI (K-562 leukemia): > 35000 nM
GI50 (A498 renal): 20.2 nM
TGI (A498 renal): 55 nM
GI50 (CCRF-CEM leukemia): 28 nM
TGI (CCRF-CEM leukemia): 1310 nM
GI50 (NCI-H23 lung): 69.4 nM
TGI (NCI-H23 lung): 680 nM
GI50 (SK-MEL-28 melanoma): 99.2 nM
TGI (SK-MEL-28 melanoma): 575 nM
GI50 (UACC-257 melanoma): 150 nM
TGI (UACC-257 melanoma): 1110 nM
TGI (HS 578T breast): 77.1 nM
GI50 (IGROV1 ovarian): 39.8 nM
TGI (IGROV1 ovarian): 239 nM
GI50 (NCI-H460 lung): 90.8 nM
TGI (NCI-H460 lung): 416 nM
GI50 (UO-31 renal): 27.8 nM
TGI (UO-31 renal): 267 nM
GI50 (HOP-92 NSCLC): 29.8 nM
TGI (HOP-92 NSCLC): 99.9 nM
GI50 (CAKI-1 renal): 22 nM
TGI (CAKI-1 renal): 253 nM
GI50 (MALME-3M melanoma): 160 nM
TGI (MALME-3M melanoma): 800 nM
GI50 (U251 CNS): 47.4 nM
TGI (U251 CNS): 838 nM
GI50 (HL-60(TB) leukemia): 32.6 nM
TGI (HL-60(TB) leukemia): 91.6 nM
GI50 (HT29 colon): 371 nM
TGI (HT29 colon): 3250 nM
GI50 (MOLT-4 leukemia): 33.8 nM
TGI (MOLT-4 leukemia): 4830 nM
GI50 (KM12 colon): 79.3 nM
TGI (KM12 colon): 459 nM
GI50 (HCC-2998 colon): 176 nM
TGI (HCC-2998 colon): 942 nM
GI50 (M14 melanoma): 49.5 nM
TGI (M14 melanoma): 483 nM
GI50 (SK-MEL-5 melanoma): 105 nM
TGI (SK-MEL-5 melanoma): 424 nM
GI50 (HCT-116 colon): 25.5 nM
TGI (HCT-116 colon): 1610 nM
GI50 (SF-295 CNS): 44.1 nM
TGI (SF-295 CNS): 337 nM
GI50 (NCI/ADR-RES ovarian): 141 nM
TGI (NCI/ADR-RES ovarian): 1260 nM
GI50 (SN12C renal): 54.3 nM
TGI (SN12C renal): 793 nM
GI50 (NCI-H522 lung): 87.3 nM
TGI (NCI-H522 lung): 1120 nM
GI50 (SK-MEL-2 melanoma): 53 nM
TGI (SK-MEL-2 melanoma): 292 nM
GI50 (T-47D breast): 139 nM
TGI (T-47D breast): 5970 nM
GI50 (MDA-MB-435): 94.4 nM
TGI (MDA-MB-435): 511 nM
GI50 (UACC-62 melanoma): 55.4 nM
TGI (UACC-62 melanoma): 196 nM
